Legend:
[1] = target: Sigma intracellular receptor 2 (Cavia porcellus); test: Binding affinity for Sigma opioid receptor type 2 in guinea pig brain homogenate with 4 nM [3H]-(+)-DTG
[2] = Binding affinity for Sigma opioid receptor type 1 in guinea pig brain homogenate with 0.5 nM [3H](+)-PENT

Ki [1] [nM]	Ki [2] [nM]	Compound
43	17	O=C1NC(c2ccccc2)(c2ccccc2)C(=O)N1CCN1CCC(c2ccccc2)CC1 [5,5-Diphenyl-3-[2-(4-phenyl-piperidin-1-yl)-ethyl]-imidazolidine-2,4-dione]
25	22	O=C1NC(c2ccccc2)(c2ccccc2)C(=O)N1CCCN1CCC(c2ccccc2)CC1 [5,5-Diphenyl-3-[3-(4-phenyl-piperidin-1-yl)-propyl]-imidazolidine-2,4-dione]
49	328	O=C1NC(c2ccccc2)(c2ccccc2)C(=O)N1CCCCN1CCN(c2ccccc2)CC1 [5,5-Diphenyl-3-[4-(4-phenyl-piperazin-1-yl)-butyl]-imidazolidine-2,4-dione]
19	19	O=C1NC(c2ccccc2)(c2ccccc2)C(=O)N1CCCCCN1CCN(c2ccccc2)CC1 [5,5-Diphenyl-3-[5-(4-phenyl-piperazin-1-yl)-pentyl]-imidazolidine-2,4-dione]

From BindingDB's records for doi:10.1016/S0960-894X(00)80068-2 (1994)
